Measurements published in the supplement of paper PMC6461962.

Columns and labels:
[1] = tested on: Pseudomonas fluorescens FW300-N2E2
In short: (§1)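 Cells were washed and added to 384-well plates at a final OD600 of 0.02 in 80 µL, with serial dilutions of inorganic ion salts or equimolar nitrilotriacetic acid complexes. Aerobic plates were shaken at 700 rpm at 30 °C, while anaerobic plates were not shaken, and OD600 was read at 24 h, or at 48 h for R2A strain comparisons. Readings were scaled between water controls and growth-blocking antibiotic controls, and wells with precipitate were excluded. The IC50 was obtained by fitting curves from at least two biological replicates with the drc R package.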

[2] = tested on: Rhodanobacter sp. FW104-10B01
In short: as §1

[3] = medium / electron acceptor: N2E2 Glucose/aerobic
[4] = medium / electron acceptor: N2E2 Glucose/aerobic 0.25xMinerals
[5] = medium / electron acceptor: N2E2 Glucose/aerobic (2)
[6] = medium / electron acceptor: N2E2 KB/aerobic
[7] = medium / electron acceptor: N2E2 LB/aerobic
[8] = medium / electron acceptor: N2E2 LB/aerobic (2)
[9] = medium / electron acceptor: N2E2 LB/nitrate
[10] = medium / electron acceptor: N2E2 Lactate/aerobic
[11] = medium / electron acceptor: N2E2 R2A/aerobic
[12] = medium / electron acceptor: 10B01 R2A/aerobic
[13] = medium / electron acceptor: 10B01 R2A/nitrate

Compound	IC50 growth inhibition [1, 3] [mM]	IC50 growth inhibition [1, 4] [mM]	IC50 growth inhibition [1, 5] [mM]	IC50 growth inhibition [1, 6] [mM]	IC50 growth inhibition [1, 7] [mM]	IC50 growth inhibition [1, 8] [mM]	IC50 growth inhibition [1, 9] [mM]	IC50 growth inhibition [1, 10] [mM]	IC50 growth inhibition [1, 11] [mM]	IC50 growth inhibition [2, 12] [mM]	IC50 growth inhibition [2, 13] [mM]
[Cl-].[Cl-].[Sr+2] [Strontium chloride]	0.332	< 0.244	< 0.244	< 0.244	27.7	17.2	12.8	< 0.244	261	354	370
CC(=O)[O-].[Tl+] [Thallium(I) acetate]	< 0.00244	< 0.00244	< 0.00244	< 0.00244	< 0.00244	< 0.00244	< 0.00244	< 0.00244	< 0.00244	> 5	2.95
[Cl-].[Cl-].[Zn+2] [Zinc chloride]	< 0.00244	< 0.00244	< 0.00244	2.72	2.62	2.55	0.58	< 0.00244	0.0704	1.77	4.5
O.O.O.O.O=S(=O)([O-])[O-].[Be+2] [beryllium sulfate tetrahydrate]	1.55	1.55	1.55	109	1.61	< 0.244	91.9	4.8	> 500	> 500	> 500
[Cl][Bi]([Cl])[Cl] [bismuth(III) chloride]	0.0103	0.00276	0.00153	0.0578	0.0727	0.103	0.00603	0.00786	0.00401	0.00279	0.354
O.O.[Cl][Cu][Cl] [copper (II) chloride dihydrate]	0.0767	0.0767	0.0767	> 5	> 5	> 5	> 5	0.0767	0.525	> 5	> 5
O.[Au+3].[Cl-].[Cl-].[Cl-] [gold (III) chloride hydrate]	< 0.000244	0.00197	< 0.000244	< 0.000244	< 0.000244	< 0.000244	< 0.000244	0.000257	< 0.000244	< 0.000244	< 0.000244
[Cl][Pb][Cl] [lead (II) chloride]	> 5	0.0379	> 5	> 5	> 5	> 5	> 5	> 5	0.14	> 5	> 5
[Cl][Hg][Cl] [mercury (II) chloride]	< 0.00244	< 0.00244	< 0.00244	< 0.00244	< 0.00244	< 0.00244	< 0.00244	< 0.00244	< 0.00244	< 0.00244	< 0.00244
[Cl][Pt]([Cl])([Cl])[Cl] [platinum (IV) chloride]	0.0175	0.0175	0.0175	0.0352	0.172	0.0661	0.0329	0.418	0.0861	0.123	0.0935
[K+].[OH-].[OH-].[OH-].[OH-].[OH-].[OH-].[Sb+3] [potassium hexahydroxoantimonate]	> 5	3.96	4.82	4.98	> 5	4.82	3.08	> 5	> 5	> 5	> 5
O.O=[Te](=O)([O-])[O-].[K+].[K+] [potassium tellurate hydrate]	> 0.5	0.0753	0.444	> 0.5	> 0.5	0.377	0.0845	0.354	> 0.5	> 0.5	> 0.5
[Cl-].[Rb+] [rubidium chloride]	17.4	251	15.7	349	387	384	284	168	> 500	354	> 500
[Cl][Ag] [silver chloride]	0.139	> 0.5	> 0.5	> 0.5	> 0.5	> 0.5	> 0.5	0.154	> 0.5	> 0.5	> 0.5
[Br-].[Na+] [sodium bromide]	354	405	379	354	354	354	303	378	448	> 500	> 500
[F-].[Na+] [sodium fluoride]	< 0.244	< 0.244	< 0.244	0.322	1.11	1.1	0.497	0.477	2.9	354	11.6
[O-][I+2]([O-])O [sodium iodate]	4.72	2.75	0.645	3.53	8.49	12.4	0.208	5.41	7.77	35.4	4.5
[I-].[Na+] [sodium iodide]	59.4	> 500	107	304	330	354	125	124	237	354	319
O=S([O-])[O-].[Na+].[Na+] [sodium sulfite]	0.261	0.391	0.45	< 0.244	7.58	1.7	1.12	< 0.244	31.7	> 500	2
OB1OB2OB(O)OB(O1)O2 [sodium tetraborate decahydrate]	> 5	> 5	> 5	> 5	> 5	> 5	3.16	> 5	> 5	> 5	> 5
